Measured values: patent US20130317037A1, “METHOD OF ADMINISTRATION AND TREATMENT” (GlaxoSmithKline Intellectual Property Development Limited, priority 2010, published 2013)

How the values were obtained:
Assay type in all cases: cell-based
[1] = system: MDAMB436L; assay: cells
Procedure: (§1) From the stock concentration, 8 serial dilutions (1:5) were made with DMSO.
(§2) Day −1: Plate cells in 100 μl volume in 96 well plate. • Note: Cell number seeded adjusted for growth characteristics, so that at time of assay for proliferation following three-day drug treatment, the control wells should still be in log-growth phase (sub-confluent). Day 0: Drug added to plate for treatment. • A time 0 plate was processed for the proliferation assay to establish a baseline reading at time when drug was added.
(§3) LBNL are following the protocols set up by the NCI/NIH DTP Human Tumor Cell Line Screen Process (http://dtp.nci.nih.gov/branches/btb/ivclsp.html) and summarized below.
(§4) [(Ti−Tz)/(C−Tz)]×100 for concentrations for which Ti>/=Tz
(§5) [(Ti−Tz)/(C−Tz)]×100=50, • which is the drug concentration resulting in a 50% reduction in the net growth in control cells during the drug incubation. TGI: Total growth inhibition is calculated from
(§6) Ti=Tz. • The drug concentration resulting in total growth inhibition (down to the ‘time 0’ baseline). LC50: Net loss of cell growth at 50% is calculated from
(§7) [(Ti−Tz)/Tz]×100=−50. • The concentration of drug resulting in a 50% reduction in the cell number at the end of the drug treatment as compared to that at the beginning (time 0) indicating a net loss of cells following treatment.
(§8) Values are calculated for each of these three parameters if the level of activity is reached; however, if the effect is not reached or is exceeded, the value for that parameter is expressed as greater or less than the maximum or minimum concentration tested.

[2] = system: 184B5; assay: in vitro
Procedure: as §1, §2, §3, §4, §5, §6, §7, §8

[3] = system: UACC812; assay: cells
Procedure: as §1, §2, §3, §4, §5, §6, §7, §8

[4] = system: HCC1187; assay: cells
Procedure: as §1, §2, §3, §4, §5, §6, §7, §8

[5] = system: MDAMB453; assay: cells
Procedure: as §1, §2, §3, §4, §5, §6, §7, §8

[6] = system: LY2; assay: cells
Procedure: as §1, §2, §3, §4, §5, §6, §7, §8

[7] = system: HCC70; assay: cells
Procedure: as §1, §2, §3, §4, §5, §6, §7, §8

[8] = system: MDAMB468D; assay: cells
Procedure: as §1, §2, §3, §4, §5, §6, §7, §8

[9] = system: HCC1569; assay: cells
Procedure: as §1, §2, §3, §4, §5, §6, §7, §8

[10] = system: BT20; assay: cells
Procedure: as §1, §2, §3, §4, §5, §6, §7, §8

[11] = system: Hs578T; assay: cells
Procedure: as §1, §2, §3, §4, §5, §6, §7, §8

[12] = system: AU565; assay: cells
Procedure: as §1, §2, §3, §4, §5, §6, §7, §8

[13] = system: HCC1143; assay: cells
Procedure: as §1, §2, §3, §4, §5, §6, §7, §8

[14] = system: MCF7; assay: cells
Procedure: as §1, §2, §3, §4, §5, §6, §7, §8

[15] = system: MCF10A; assay: cells
Procedure: as §1, §2, §3, §4, §5, §6, §7, §8

[16] = system: MDAMB231; assay: cells
Procedure: as §1, §2, §3, §4, §5, §6, §7, §8

[17] = system: HCC1806; assay: cells
Procedure: as §1, §2, §3, §4, §5, §6, §7, §8

[18] = system: SUM159PT; assay: cells
Procedure: as §1, §2, §3, §4, §5, §6, §7, §8

[19] = system: HCC202; assay: cells
Procedure: as §1, §2, §3, §4, §5, §6, §7, §8

[20] = system: MDAMB157; assay: cells
Procedure: as §1, §2, §3, §4, §5, §6, §7, §8

[21] = system: MCF10F; assay: cells
Procedure: as §1, §2, §3, §4, §5, §6, §7, §8

[22] = system: UACC893D; assay: cells
Procedure: as §1, §2, §3, §4, §5, §6, §7, §8

[23] = Homo sapiens, 50% net loss of cells vs time 0, read-out: LC50 (the source's name)
[24] = Homo sapiens, 72 h, three-day drug treatment, read-out: gIC50

COc1ncc(-c2ccc3nccc(-c4ccnnc4)c3c2)cc1NS(=O)(=O)c1ccc(F)cc1F [Compound B, 2,4-difluoro-N-{2-(methyloxy)-5-[4-(4-pyridazinyl)-6-quinolinyl]-3-pyridinyl}benzenesulfonamide]
CC50 [1, 23]: > 33000 nM | IC50 [1, 24]: 13.2 nM | TGI ([1]; total growth inhibition): >33000.0 nM | TGI ([2]; 184B5, total growth inhibition): 46.3 nM | IC50 ([2]; Homo sapiens, 72 h, 184B5, three-day drug treatment, read-out: gIC50): 5.6 nM | IC50 ([3]; Homo sapiens, UACC-812, 72 h, UACC812, three-day drug treatment, read-out: gIC50): 4.9 nM | TGI ([3]; UACC812, total growth inhibition): 24.0 nM | TGI ([4]; HCC1187, total growth inhibition): 35.5 nM | IC50 ([4]; Homo sapiens, 72 h, HCC1187, three-day drug treatment, read-out: gIC50): 4.9 nM | CC50 ([4]; Homo sapiens, HCC1187, 50% net loss of cells vs time 0, read-out: LC50 (the source's name)): 118 nM | IC50 ([5]; Homo sapiens, MDA-MB-453, 72 h, MDAMB453, three-day drug treatment, read-out: gIC50): 7.8 nM | CC50 ([5]; Homo sapiens, MDA-MB-453, MDAMB453, 50% net loss of cells vs time 0, read-out: LC50 (the source's name)): 162 nM | TGI ([5]; MDAMB453, total growth inhibition): 54.9 nM | IC50 ([6]; Homo sapiens, 72 h, LY2, three-day drug treatment, read-out: gIC50): 11 nM | TGI ([6]; LY2, total growth inhibition): 30.2 nM | TGI ([7]; HCC70, total growth inhibition): 26.8 nM | IC50 ([7]; Homo sapiens, 72 h, HCC70, three-day drug treatment, read-out: gIC50): 4.9 nM | CC50 ([7]; Homo sapiens, HCC70, 50% net loss of cells vs time 0, read-out: LC50 (the source's name)): 118 nM | CC50 [8, 23]: 2240 nM | IC50 [8, 24]: 31.6 nM | TGI ([8]; total growth inhibition): 537.0 nM | TGI ([9]; HCC1569, total growth inhibition): 67.4 nM | IC50 ([9]; Homo sapiens, 72 h, HCC1569, three-day drug treatment, read-out: gIC50): 16.3 nM | CC50 ([9]; Homo sapiens, HCC1569, 50% net loss of cells vs time 0, read-out: LC50 (the source's name)): > 33000 nM | TGI ([10]; BT20, total growth inhibition): 95.5 nM | IC50 ([10]; Homo sapiens, BT-20, 72 h, BT20, three-day drug treatment, read-out: gIC50): 14.8 nM | CC50 ([10]; Homo sapiens, BT-20, BT20, 50% net loss of cells vs time 0, read-out: LC50 (the source's name)): 468 nM | CC50 ([11]; Homo sapiens, Hs-578T, 50% net loss of cells vs time 0, read-out: LC50 (the source's name)): > 33000 nM | IC50 ([11]; Homo sapiens, Hs-578T, 72 h, three-day drug treatment, read-out: gIC50): 67.4 nM | TGI ([11]; total growth inhibition): 4556.2 nM | TGI ([12]; AU565, total growth inhibition): 6700.0 nM | IC50 ([12]; Homo sapiens, 72 h, AU565, three-day drug treatment, read-out: gIC50): 7.2 nM | CC50 ([12]; Homo sapiens, AU565, 50% net loss of cells vs time 0, read-out: LC50 (the source's name)): > 33000 nM | TGI ([13]; HCC1143, total growth inhibition): 344.0 nM | IC50 ([13]; Homo sapiens, 72 h, HCC1143, three-day drug treatment, read-out: gIC50): 34 nM | CC50 ([13]; Homo sapiens, HCC1143, 50% net loss of cells vs time 0, read-out: LC50 (the source's name)): 19500 nM | IC50 ([14]; Homo sapiens, 72 h, MCF7, three-day drug treatment, read-out: gIC50): 7.3 nM | CC50 ([14]; Homo sapiens, MCF7, 50% net loss of cells vs time 0, read-out: LC50 (the source's name)): 149 nM | TGI ([14]; MCF7, total growth inhibition): 22.0 nM | IC50 ([15]; Homo sapiens, MCF-10A, 72 h, three-day drug treatment, read-out: gIC50): 7.2 nM | TGI ([15]; total growth inhibition): 467.7 nM | IC50 ([16]; Homo sapiens, MDA-MB-231, 72 h, MDAMB231, three-day drug treatment, read-out: gIC50): 110 nM | CC50 ([16]; Homo sapiens, MDA-MB-231, MDAMB231, 50% net loss of cells vs time 0, read-out: LC50 (the source's name)): > 33000 nM | TGI ([16]; MDAMB231, total growth inhibition): >33000.0 nM | TGI ([17]; HCC1806, total growth inhibition): 375.1 nM | IC50 ([17]; Homo sapiens, 72 h, HCC1806, three-day drug treatment, read-out: gIC50): 26.2 nM | CC50 ([17]; Homo sapiens, HCC1806, 50% net loss of cells vs time 0, read-out: LC50 (the source's name)): 2820 nM | CC50 ([18]; Homo sapiens, SUM-159-PT, 50% net loss of cells vs time 0, read-out: LC50 (the source's name)): > 33000 nM | IC50 ([18]; Homo sapiens, SUM-159-PT, 72 h, three-day drug treatment, read-out: gIC50): 10.4 nM | TGI ([18]; total growth inhibition): 940.6 nM | TGI ([19]; HCC202, total growth inhibition): 2.6 nM | IC50 ([19]; Homo sapiens, 72 h, HCC202, three-day drug treatment, read-out: gIC50): 1.1 nM | CC50 ([19]; Homo sapiens, HCC202, 50% net loss of cells vs time 0, read-out: LC50 (the source's name)): 21.4 nM | IC50 ([20]; Homo sapiens, MDA-MB-157, 72 h, MDAMB157, three-day drug treatment, read-out: gIC50): 398 nM | CC50 ([20]; Homo sapiens, MDA-MB-157, MDAMB157, 50% net loss of cells vs time 0, read-out: LC50 (the source's name)): > 33000 nM | TGI ([20]; MDAMB157, total growth inhibition): 3981.1 nM | IC50 ([21]; Homo sapiens, MCF-10F, 72 h, three-day drug treatment, read-out: gIC50): 2.4 nM | TGI ([21]; total growth inhibition): 14.3 nM | IC50 [22, 24]: 8.8 nM | TGI ([22]; total growth inhibition): 20.1 nM
